Test results as given in US10584129B2, “Substituted 6,7-dihydropyrazolo[1,5-a]pyrazines as negative allosteric modulators of mGluR2 receptors” (Janssen Pharmaceutica NV, priority 2013, dated 2020).

Test system: Wiga rats
Assay: Reserpine interaction test in rats
Assay type: in vivo, rat
Conditions: PO, Time 60, reserpine 10 mg/kg SC, -1 h; for ED50: Rattus norvegicus, read-out: ED50 reversal of reserpine-induced ptosis

Structure (SMILES) | ED50 reversal of reserpine-induced ptosis [mg/kg] | ED50 [mg/kg]
Cc1cc(-c2cnn3c2C(=O)N(c2ccc(C(F)(F)F)cc2)CC3(C)C)ccn1 [compound 171] | 5 | –
Cc1cc(-c2cnn3c2C(=O)N(c2ccc(Cl)cc2Cl)C[C@@H]3C)ccn1 [compound 167] | – | 0.1
Cc1cc(-c2cnn3c2C(=O)N(c2ccc(C(F)(F)F)cn2)CC3C)cc(C)n1 (stereo not shown) [compound 194] | – | 5
COc1cc(Cl)ccc1N1CC(C)n2ncc(-c3ccnc(C)c3)c2C1=O (stereo not shown) [compound 161] | – | 3.15
CCOc1ccc(Cl)c(N2CC(C)n3ncc(-c4ccnc(C)c4)c3C2=O)n1 (stereo not shown) [compound 195] | – | 1.25
CNc1cc(-c2cnn3c2C(=O)N(c2ccc(C(F)(F)F)cc2)C[C@@H]3C)ccn1 [compound 147] | – | 7.94
Cc1cc(-c2cnn3c2C(=O)N(c2ccc(Cl)cc2C)CC3C)ccn1 (stereo not shown) [compound 172] | – | 1.26
